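Following 48 hours of exposure in 96-well plates, responses at five concentrations were used to interpolate endpoints linearly. GI50 marks 50% less growth. TGI: concentration producing complete growth inhibition.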
Tests used:
Assay in all cases: NCI tumour cell line growth inhibition, 48 h
[1] = system: ACHN renal
[2] = system: MALME-3M melanoma
[3] = system: SK-MEL-5 melanoma
[4] = system: SK-MEL-28 melanoma
[5] = system: OVCAR-3 ovarian
[6] = system: SNB-75 CNS
[7] = system: NCI-H460 lung
[8] = system: KM12 colon
[9] = system: MDA-MB-231 breast
[10] = system: MDA-MB-435

| Compound | TGI [1] [µM] | TGI [2] [µM] | TGI [3] [µM] | TGI [4] [µM] | TGI [5] [µM] | TGI [6] [µM] | TGI [7] [µM] | TGI [8] [µM] | GI50 [9] [µM] | TGI [9] [µM] | GI50 [1] [µM] | GI50 [2] [µM] | GI50 [10] [µM] | TGI [10] [µM] | GI50 [3] [µM] | GI50 [4] [µM] | GI50 [5] [µM] | GI50 [6] [µM] | GI50 [7] [µM] | GI50 [8] [µM] |
| --- | --- | --- | --- | --- | --- | --- | --- | --- | --- | --- | --- | --- | --- | --- | --- | --- | --- | --- | --- | --- |
| CCOC(=O)C1=C(C)N(NC(=O)Nc2ccccc2)C2(N)N(NC(=O)Nc3ccccc3)C(C)=C(C(=O)OCC)C12C(=O)OCC (centres undefined) | > 100 | 93.5 | > 100 | > 100 | > 100 | 98.1 | > 100 | > 100 |  |  |  |  |  |  |  |  |  |  |  |  |
| COc1ccccc1NC(=O)c1cc2cc(Br)ccc2cc1O | 7.21 | 4.87 | 3.11 | 14.4 | 9.06 | 8.89 | 6.77 | 10.8 | 2.05 | 5.69 | 2.52 | 1.39 | 2.35 | 8.58 | 1.46 | 4.46 | 2.48 | 2.12 | 2.15 | 3.17 |
| CC(C)(C)[Si](C)(C)OC1[C@@H](O[Si](C)(C)C(C)(C)C)[C@@H](CNC(=O)NC(=O)C(F)(F)F)O[C@H]1n1cnc2c(NC(=O)Nc3ccccc3)ncnc21 (some centres undefined) | 11.5 | 19.5 | 9.18 | 15.2 | 14.5 | 12.7 | 15.7 | 11.4 | 6.16 | 14.2 | 5.54 | 10.4 | 5.52 | 16.4 | 2.72 | 8.04 | 7.63 | 5.68 | 6.39 | 4.02 |
| CN1C(=O)C(=O)N2c3ccc(Cl)cc3C3(c4ccccc4)N=CC12O3 (centres undefined) | 17.7 | 47.2 | 17.6 | 12.1 | 14.8 | 24.3 | 25.8 | 13.7 |  |  |  |  |  |  |  |  |  |  |  |  |
| O=C(/C=C/c1c(O)ccc2ccccc12)c1ccc([N+](=O)[O-])cc1 | 54 | 49.7 | 34.5 | > 67.6 | 39.8 | > 100 | > 100 | > 100 |  |  |  |  |  |  |  |  |  |  |  |  |
| O=C(Nc1nn2c(-c3cc(C(F)(F)F)cc(C(F)(F)F)c3)nnc2s1)C1CCCC1 | > 31.6 | 2.93 | 1.74 | > 100 | > 37.8 | > 28.2 | > 100 | > 46.2 | 1.12 | 4.01 | 1.04 | 0.27 | 0.424 | > 39.8 | 0.251 | 0.734 | 0.441 | 1.43 | 0.473 | 0.575 |
| COC(=O)c1cc2oc(/C=C3/SC(=S)N(NC(C)=O)C3=O)cc2n1C | 43.5 | 52 | 26.2 | > 100 | 55 | > 100 | > 100 | > 100 | 21.5 | 53.2 | 15.8 | 10.8 | 17.6 | > 100 | 12.6 | 40.3 | 19.2 | 34.7 | 8.26 | 26.4 |

— PubChem BioAssay (NCI)
